Tests used:
[1] = Ratio of ED50 to that of taxol.
[2] = In vitro binding affinity to reduce the supernatant protein concentration of the microtubule

Structure (SMILES) | Ratio [1] | ED50 [2]
CC(=O)O[C@H]1C(=O)[C@@]2(C)[C@H]([C@H](OC(=O)c3ccccc3)[C@]3(O)C[C@H](OC(=O)[C@H](O)[C@@H](NC(=O)OC(C)(C)C)c4ccccc4)C(C)=C1C3(C)C)[C@]1(O)CO[C@@H]1C[C@@H]2O | > 32 | > 30 µM
CC(=O)O[C@H]1C(=O)[C@@]2(C)[C@H]([C@H](OC(=O)c3ccccc3)[C@]3(O)C[C@H](OC(=O)[C@H](O)[C@@H](NC(=O)c4ccccc4)c4ccccc4)C(C)=C1C3(C)C)[C@]1(OC(C)=O)CO[C@@H]1C[C@@H]2O | 1 | 0.93 µM
CC(=O)O[C@H]1C(=O)[C@@]2(C)[C@H]([C@H](OC(=O)c3ccccc3)[C@]3(O)C[C@H](OC(=O)[C@H](O)[C@@H](NC(=O)c4ccccc4)c4ccccc4)C(C)=C1C3(C)C)[C@]1(O)CO[C@@H]1C[C@@H]2O | > 32 | > 30 µM
